As for `CCCC(C)C(C)CC` (stereo not given) [3,4-dimethylheptane], the flash point was found to be 15 °C.
Take `CC(C)=CCCC(C)CC=O` (stereo not given) [3,7-dimethyl-6-octenal]: the flash point was 78 °C.
`CCCC(Br)CC` (stereo not given) [3-bromohexane] came in with a flash point of 40 °C.
The value for `CCC(Br)CC` [3-bromopentane] was 19 °C; that for `Cc1cccc(Br)c1` [3-bromotoluene] was 75 °C; that for `C=CCCO` [3-buten-1-ol] was 32 °C.
The value for `C=CC(C)O` (stereo not given) [3-buten-2-ol] was 20 °C; that for `OCCCCl` [3-chloro-1-propanol] was 73 °C; that for `C=C(C)CCl` [3-chloro-2-methyl-1-propene] was -12 °C.
The value for `C=CCCl` [3-chloropropene] was -28 °C.
Molecule `CCC(CC)C(C)(C)C` [3-ethyl-2,2-dimethylpentane] registered a flash point of 13 °C.
`CCC(C(C)C)C(C)C` [3-ethyl-2,4-dimethylpentane] registered a flash point of 15 °C.
`CCC(CC)C(C)C` [3-ethyl-2-methylpentane]: the flash point came out at 3 °C.
The value for `CC=C(CC)CC` [3-ethyl-2-pentene] was -6 °C; that for `CCCCC(C)(CC)CC` [3-ethyl-3-methylheptane] was 41 °C; that for `CCC(C)CC(CC)CC` (stereo not given) [3-ethyl-5-methylheptane] was 31 °C.
For `CCCC(CC)CC` [3-ethylhexane] the value was 5 °C.
For `CCc1cccc(O)c1` [3-ethylphenol] the value was 94 °C; for `CCc1ccsc1` [3-ethylthiophene], 23 °C; for `Cc1cccc(F)c1` [3-fluorotoluene], 12 °C.
As to `CCCCC(=O)CC` [3-heptanone], the flash point turned out to be 38 °C.
`CCC#CCC` [3-hexyne] gave a flash point of -14 °C.
For `C=CCI` [3-iodo-1-propene] the value was 16 °C; for `CCCC(I)CC` (stereo not given) [3-iodohexane], 55 °C.
For `CC(C)c1cccc(O)c1` [3-isopropylphenol] the value was 104 °C; for `C=CC(C)CCC` (stereo not given) [3-methyl-1-hexene], -18 °C.
The value for `C=CC(C)CC` (stereo not given) [3-methyl-1-pentene] was -33 °C; that for `CC(C)C(C)S` (stereo not given) [3-methyl-2-butanethiol] was 9 °C.
The molecule `CC(C)C(C)O` (stereo not given) [3-methyl-2-butanol] had a flash point of 27 °C.
For `Cc1cccc(N)c1` [3-methylaniline] the value was 86 °C.
For `CC(C)CC(=O)O` [3-methylbutanoicacid] the value was 74 °C; for `CC(C)CC(=O)OC(=O)CC(C)C` [3-methylbutanoicanhydride], 91 °C; for `CC1CCCC(=O)C1` (stereo not given) [3-methylcyclohexanone], 48 °C.
Regarding `CCCCC(C)CC` (stereo not given) [3-methylheptane], the flash point stood at 6 °C.
Regarding `CCCC(C)CC` (stereo not given) [3-methylhexane], the flash point is -15 °C.
For `CCCC(C)CC(=O)O` (stereo not given) [3-methylhexanoicacid] the value was 103 °C; for `C=Cc1cccc(C)c1` [3-methylstyrene], 48 °C; for `Cc1ccsc1` [3-methylthiophene], 11 °C.
The value for `CCCCCCC(O)CC` (stereo not given) [3-nonanol] was 79 °C; that for `CCC#CCCCCC` [3-nonyne] was 38 °C; that for `CCCCCC(O)CC` (stereo not given) [3-octanol] was 68 °C.
`CC(=O)OCCCc1ccccc1` [3-phenylpropylacetate] gave a flash point of 113 °C.
The value for `CCCCCCCCC(=O)CC` [3-undecanone] was 89 °C; that for `C=CCCBr` [4-bromo-1-butene] was 9 °C.
The value for `CCCCCCC(=O)CCC` [4-decanone] was 71 °C; that for `CCCC#CCCCCC` [4-decyne] was 52 °C.
On to `CCc1ccc(N)cc1` [4-ethylaniline], for which the flash point amounted to 97 °C.
For the molecule `CCCC(CC)CCC` [4-ethylheptane], the flash point was 15 °C.
The value for `C=CC=C(C)C` [4-methyl-1,3-pentadiene] was -18 °C.
Take `C=CCC(C)CCC` (stereo not given) [4-methyl-1-heptene]: the flash point is 2 °C.
For `C=CCC(C)CC` (stereo not given) [4-methyl-1-hexene] the value was -15 °C.
The value for `CC(C)CCCO` [4-methyl-1-pentanol] was 51 °C; that for `C#CCC(C)C` [4-methyl-1-pentyne] was -24 °C; that for `CC(=O)CC(C)C` [4-methyl-2-pentanone] was 14 °C.
`C=CC1(C)CCC(=O)O1` (stereo not given) [4-methyl-4-vinylbutyrolactone] gave a flash point of 75 °C.
For `CC1CCC(=O)CC1` [4-methylcyclohexanone] the value was 48 °C; for `CCC(C)CCC(=O)O` (stereo not given) [4-methylhexanoicacid], 103 °C.
`CCCCCC(C)CCC` (stereo not given) [4-methylnonane]: the flash point came to 38 °C.
Molecule `CCCCC(C)CCC` (stereo not given) [4-methyloctane] displayed a flash point of 22 °C.
The value for `CC(C)CCC(=O)O` [4-methylpentanoicacid] was 97 °C; that for `C=Cc1ccc(C)cc1` [4-methylstyrene] was 46 °C.
`CCCCCC(=O)CCC` [4-nonanone] showed a flash point of 62 °C.
For `CCCC#CCCCC` [4-nonyne] the value was 35 °C; for `Cc1ccncc1` [4-picoline], 38 °C.
For `CCCC1CCC(=O)CC1` [4-propylcyclohexanone] the value was 86 °C; for `CSCCC=O` [4-thiapentanal], 61 °C.
The value for `CCCCCCCC(=O)CCC` [4-undecanone] was 92 °C.
The molecule `C#CCCCCl` [5-chloro-1-pentyne] showed a flash point of 15 °C.
For `C=CCCC(C)C` [5-methyl-1-hexene] the value was -10 °C.
For `CCC(=O)CC(C)CC` (stereo not given) [5-methyl-3-heptanone] the value was 43 °C; for `CCCCC(C)CCCC` [5-methylnonane], 37 °C; for `CCCCC(=O)CCCC` [5-nonanone], 60 °C.
`CCCCCC(=O)CCCCC` [6-undecanone]: the flash point is 88 °C.
The molecule `C=CCCCCC(C)C` [7-methyl-1-octene] yielded a flash point of 18 °C.
The value for `C=CCCCCCCCCO` [9-decen-1-ol] was 119 °C; that for `CCCCCCC(C)c1ccccc1` (stereo not given) [(1-methylheptyl)benzene] was 100 °C.
Take `CCCNCCO` [(2-hydroxyethyl)propylamine]: the flash point amounted to 78 °C.
As for `CCN(CC)c1ccccc1` [N,N-diethylaniline], the flash point came out at 88 °C.
Turning to `CCN(C=O)CC` [N,N-diethylformamide], the flash point was 65 °C.
`CC(C)N(C=O)C(C)C` [N,N-diisopropylformamide] had a flash point of 75 °C.
Take `CN(C)CCCN` [N,N-dimethyl-1,3-propanediamine]: the flash point was 32 °C.
For `CC(=O)N(C)C` [N,N-dimethylacetamide] the value was 66 °C; for `CN(C)c1ccccc1` [N,N-dimethylaniline], 75 °C; for `CCCCNC(C)=O` [N-butylacetamide], 115 °C.
For `CCCCNc1ccccc1` [N-butylaniline] the value was 107 °C; for `CCN(C)CC` [N-ethyl-N-methylethanamine], -23 °C; for `CCNC(C)=O` [N-ethylacetamide], 106 °C.
The value for `CCNC1CCCCC1` [N-ethylcyclohexanamine] was 45 °C; that for `CN(CCO)CCO` [N-methyldiethanolamine] was 137 °C; that for `CC(C)(C)Nc1ccccc1` [N-tert-butylaniline] was 88 °C.
For `CC(=O)OC(C)=O` [aceticanhydride], the flash point was 49 °C.
The value for `C=CC=O` [acrolein] was -19 °C; that for `C=CC(=O)O` [acrylicacid] was 54 °C; that for `C=CC#N` [acrylonitrile] was -5 °C.
For `C=CCO` [allylalcohol] the value was 22 °C; for `C=CCC1CCCC1` [allylcyclopentane], 12 °C; for `C=CCOCC` [allylethylether], -20 °C.
For the molecule `C=CCSCC` [allylethylsulfide], the flash point is 16 °C.
For `C=CCOC(=O)C(=C)C` [allylmethacrylate] the value was 37 °C.
The value for `C=CCOC(=O)CC` [allylpropanoate] was 25 °C; that for `C=CCOCCC` [allylpropylether] was -5 °C; that for `OCc1ccccc1` [benzylalcohol] was 93 °C.
The value for `CCCC(=O)OCc1ccccc1` [benzylbutanoate] was 107 °C; that for `N#CCc1ccccc1` [benzylcyanide] was 101 °C; that for `CCOCc1ccccc1` [benzylethylether] was 59 °C.
Regarding `ICc1ccccc1` [benzyliodide], the flash point was 97 °C.
`SCc1ccccc1` [benzylmercaptan] registered a flash point of 70 °C.
The value for `C1CCC(C2CCCCC2)CC1` [bicyclohexyl] was 92 °C; that for `BrC1CCCC1` [bromocyclopentane] was 35 °C.
The value for `CCCC(=O)OC(=O)CCC` [butanoicanhydride] was 82 °C.

(Values after a flash point compilation (Sun et al. 2020).)
